Experiments:
Experiment in all cases: KINOMEscan competition binding
Settings in all cases: compound 10.0 µM
[1] = tested on: ABL1 (human), P00519 [F317L]
[2] = tested on: ABL1 (human), P00519 [T315I]
HIPK3 (human) = HIPK3 (human) (UniProt Q9H422)
CSNK1A1L (human) = CSNK1A1L (human) (UniProt Q8N752)
STK39 (human) = STK39 (human) (UniProt Q9UEW8)
PI4KB (human) = PI4KB (human) (UniProt Q9UBF8)
VRK2 (human) = VRK2 (human) (UniProt Q86Y07)
[3] = tested on: PIK3CA (human), P42336 [C420R]
PRKCI (human) = PRKCI (human) (UniProt P41743)
DSTYK (human) = DSTYK (human) (UniProt Q6XUX3)
SGK3 (human) = SGK3 (human) (UniProt Q96BR1)
GRK4 (human) = GRK4 (human) (UniProt P32298)
MAST1 (human) = MAST1 (human) (UniProt Q9Y2H9)
IRAK4 (human) = IRAK4 (human) (UniProt Q9NWZ3)
PRPF4B (human) = PRPF4B (human) (UniProt Q13523)
PLK2 (human) = PLK2 (human) (UniProt Q9NYY3)
[4] = tested on: PIK3CA (human), P42336 [I800L]
CDK4 CCND1 (human) = CDK4 CCND1 (human) (UniProt P11802+P24385)
CPK1 (P.falciparum) = tested on: CPK1 (P.falciparum)
MARK2 (human) = MARK2 (human) (UniProt Q7KZI7)
PRKG2 (human) = PRKG2 (human) (UniProt Q13237)
[5] = tested on: KIT (human), P10721 [A829P]
[6] = tested on: KIT (human), P10721 [D816H]
ROCK1 (human) = ROCK1 (human) (UniProt Q13464)
CASK (human) = CASK (human) (UniProt O14936)
STK38 (human) = STK38 (human) (UniProt Q15208)
Chain of STK38 (human) (Q15208 whole entry, looked up): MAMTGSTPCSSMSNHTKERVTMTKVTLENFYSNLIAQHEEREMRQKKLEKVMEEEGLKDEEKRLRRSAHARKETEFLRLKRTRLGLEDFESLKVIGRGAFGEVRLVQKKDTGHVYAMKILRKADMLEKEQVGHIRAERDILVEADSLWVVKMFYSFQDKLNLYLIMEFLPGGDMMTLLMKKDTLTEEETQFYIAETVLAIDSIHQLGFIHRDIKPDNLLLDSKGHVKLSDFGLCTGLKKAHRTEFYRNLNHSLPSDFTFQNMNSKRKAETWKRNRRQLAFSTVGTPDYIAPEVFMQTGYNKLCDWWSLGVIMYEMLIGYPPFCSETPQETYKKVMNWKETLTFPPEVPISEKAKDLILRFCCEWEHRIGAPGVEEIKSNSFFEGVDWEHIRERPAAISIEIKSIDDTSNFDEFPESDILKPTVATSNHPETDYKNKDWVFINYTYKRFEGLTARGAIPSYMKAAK

HIPK2 (human) = HIPK2 (human) (UniProt Q9H2X6)
Chain of HIPK2 (human) (Q9H2X6 whole entry, looked up): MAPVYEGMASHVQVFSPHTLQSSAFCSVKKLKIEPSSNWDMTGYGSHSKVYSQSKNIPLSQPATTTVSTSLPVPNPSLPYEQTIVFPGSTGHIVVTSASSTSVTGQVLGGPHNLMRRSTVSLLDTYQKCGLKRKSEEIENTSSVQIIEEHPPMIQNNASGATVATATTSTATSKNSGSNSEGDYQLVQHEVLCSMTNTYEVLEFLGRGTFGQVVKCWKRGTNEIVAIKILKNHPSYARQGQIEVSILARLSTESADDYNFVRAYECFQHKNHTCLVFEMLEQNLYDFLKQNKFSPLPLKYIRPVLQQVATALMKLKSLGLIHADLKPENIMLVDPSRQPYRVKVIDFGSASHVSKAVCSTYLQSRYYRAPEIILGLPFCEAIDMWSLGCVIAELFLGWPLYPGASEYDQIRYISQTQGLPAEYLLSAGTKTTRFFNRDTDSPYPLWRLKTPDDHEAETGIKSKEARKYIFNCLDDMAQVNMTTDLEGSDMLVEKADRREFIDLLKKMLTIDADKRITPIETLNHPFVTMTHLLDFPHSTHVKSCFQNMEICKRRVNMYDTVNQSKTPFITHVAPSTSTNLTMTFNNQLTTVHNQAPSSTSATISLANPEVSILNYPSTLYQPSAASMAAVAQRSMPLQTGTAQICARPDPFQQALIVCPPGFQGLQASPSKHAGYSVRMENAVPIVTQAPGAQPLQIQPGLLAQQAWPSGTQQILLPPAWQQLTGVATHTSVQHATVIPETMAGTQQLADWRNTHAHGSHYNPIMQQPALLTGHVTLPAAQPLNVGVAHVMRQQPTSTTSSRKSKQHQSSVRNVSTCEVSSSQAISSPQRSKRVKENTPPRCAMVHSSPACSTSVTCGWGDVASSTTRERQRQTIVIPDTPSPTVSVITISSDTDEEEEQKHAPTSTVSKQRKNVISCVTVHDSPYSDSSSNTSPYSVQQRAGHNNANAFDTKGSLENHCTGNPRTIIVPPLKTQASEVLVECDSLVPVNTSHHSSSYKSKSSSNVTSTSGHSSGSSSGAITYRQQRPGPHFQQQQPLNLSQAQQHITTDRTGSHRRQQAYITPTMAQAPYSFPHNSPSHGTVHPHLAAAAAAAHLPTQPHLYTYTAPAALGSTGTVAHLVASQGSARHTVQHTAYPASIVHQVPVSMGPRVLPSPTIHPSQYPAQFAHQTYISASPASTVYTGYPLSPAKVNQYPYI

PKN3 (M.tuberculosis) = PKN3 (M.tuberculosis) (UniProt Q6P5Z2)
ERBB3 (human) = ERBB3 (human) (UniProt P21860)
IRAK1 (human) = IRAK1 (human) (UniProt P51617)
NEK11 (human) = NEK11 (human) (UniProt Q8NG66)
[7] = tested on: PIK3CA (human), P42336 [E545A]
HUNK (human) = HUNK (human) (UniProt P57058)
CDK4 CCND3 (human) = CDK4 CCND3 (human) (UniProt P11802+P30281)
ACVR2B (human) = ACVR2B (human) (UniProt Q13705)
PAK3 (human) = PAK3 (human) (UniProt O75914)
[8] = tested on: PIK3CA (human), P42336 [M1043I]
DYRK2 (human) = DYRK2 (human) (UniProt Q92630)
Chain of DYRK2 (human) (Q92630 whole entry, looked up): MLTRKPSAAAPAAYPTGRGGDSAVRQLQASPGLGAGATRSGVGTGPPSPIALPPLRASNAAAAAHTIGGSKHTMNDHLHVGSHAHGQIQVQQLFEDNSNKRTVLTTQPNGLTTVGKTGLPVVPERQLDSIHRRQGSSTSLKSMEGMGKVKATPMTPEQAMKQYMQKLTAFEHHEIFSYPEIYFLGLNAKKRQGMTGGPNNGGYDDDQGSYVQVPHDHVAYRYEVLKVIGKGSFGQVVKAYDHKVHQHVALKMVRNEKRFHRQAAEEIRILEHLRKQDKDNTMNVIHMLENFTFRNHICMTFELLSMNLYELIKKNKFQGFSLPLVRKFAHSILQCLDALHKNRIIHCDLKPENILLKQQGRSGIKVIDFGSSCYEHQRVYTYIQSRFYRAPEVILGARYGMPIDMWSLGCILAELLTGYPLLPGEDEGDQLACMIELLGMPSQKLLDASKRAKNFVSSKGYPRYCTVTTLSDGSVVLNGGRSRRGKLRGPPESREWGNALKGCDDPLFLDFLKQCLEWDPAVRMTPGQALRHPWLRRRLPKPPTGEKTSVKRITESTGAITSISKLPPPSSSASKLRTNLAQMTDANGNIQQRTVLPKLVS

[9] = tested on: PIK3CA (human), P42336 [H1047L]
Chain of PIK3CA (human), P42336 [H1047L] (P42336 whole entry H1047L, looked up): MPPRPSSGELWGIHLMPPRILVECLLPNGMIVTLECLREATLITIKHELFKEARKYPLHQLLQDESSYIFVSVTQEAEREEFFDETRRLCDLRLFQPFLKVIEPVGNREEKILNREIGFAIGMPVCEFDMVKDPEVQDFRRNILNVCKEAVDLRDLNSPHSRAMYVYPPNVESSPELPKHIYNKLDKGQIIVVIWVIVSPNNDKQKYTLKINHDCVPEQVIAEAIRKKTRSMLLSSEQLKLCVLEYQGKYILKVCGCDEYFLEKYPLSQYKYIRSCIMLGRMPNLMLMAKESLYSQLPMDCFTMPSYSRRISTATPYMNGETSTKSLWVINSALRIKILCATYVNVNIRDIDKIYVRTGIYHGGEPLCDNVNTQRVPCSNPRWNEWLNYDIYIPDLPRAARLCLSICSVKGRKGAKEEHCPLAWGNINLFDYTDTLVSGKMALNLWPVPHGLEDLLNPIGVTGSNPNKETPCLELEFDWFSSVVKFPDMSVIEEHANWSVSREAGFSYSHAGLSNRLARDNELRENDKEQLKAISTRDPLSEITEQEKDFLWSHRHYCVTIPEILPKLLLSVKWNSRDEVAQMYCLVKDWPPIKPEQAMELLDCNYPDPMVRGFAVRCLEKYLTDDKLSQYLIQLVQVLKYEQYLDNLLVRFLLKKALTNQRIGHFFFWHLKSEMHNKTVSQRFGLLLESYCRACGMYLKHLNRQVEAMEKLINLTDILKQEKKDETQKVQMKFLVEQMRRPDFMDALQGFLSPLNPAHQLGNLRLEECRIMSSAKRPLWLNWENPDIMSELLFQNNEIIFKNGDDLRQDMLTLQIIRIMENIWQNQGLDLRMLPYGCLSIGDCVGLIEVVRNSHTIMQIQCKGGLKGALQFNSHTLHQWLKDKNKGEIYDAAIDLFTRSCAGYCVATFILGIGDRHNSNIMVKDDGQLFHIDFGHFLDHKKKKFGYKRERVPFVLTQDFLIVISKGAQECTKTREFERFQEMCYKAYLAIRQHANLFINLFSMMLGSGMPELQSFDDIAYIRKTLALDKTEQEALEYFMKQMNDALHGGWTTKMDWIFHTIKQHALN

MAP3K1 (human) = MAP3K1 (human) (UniProt Q13233)
TRPM6 (human) = TRPM6 (human) (UniProt Q9BX84)
CDKL5 (human) = CDKL5 (human) (UniProt O76039)

Chain of HIPK3 (human) (Q9H422 whole entry, looked up): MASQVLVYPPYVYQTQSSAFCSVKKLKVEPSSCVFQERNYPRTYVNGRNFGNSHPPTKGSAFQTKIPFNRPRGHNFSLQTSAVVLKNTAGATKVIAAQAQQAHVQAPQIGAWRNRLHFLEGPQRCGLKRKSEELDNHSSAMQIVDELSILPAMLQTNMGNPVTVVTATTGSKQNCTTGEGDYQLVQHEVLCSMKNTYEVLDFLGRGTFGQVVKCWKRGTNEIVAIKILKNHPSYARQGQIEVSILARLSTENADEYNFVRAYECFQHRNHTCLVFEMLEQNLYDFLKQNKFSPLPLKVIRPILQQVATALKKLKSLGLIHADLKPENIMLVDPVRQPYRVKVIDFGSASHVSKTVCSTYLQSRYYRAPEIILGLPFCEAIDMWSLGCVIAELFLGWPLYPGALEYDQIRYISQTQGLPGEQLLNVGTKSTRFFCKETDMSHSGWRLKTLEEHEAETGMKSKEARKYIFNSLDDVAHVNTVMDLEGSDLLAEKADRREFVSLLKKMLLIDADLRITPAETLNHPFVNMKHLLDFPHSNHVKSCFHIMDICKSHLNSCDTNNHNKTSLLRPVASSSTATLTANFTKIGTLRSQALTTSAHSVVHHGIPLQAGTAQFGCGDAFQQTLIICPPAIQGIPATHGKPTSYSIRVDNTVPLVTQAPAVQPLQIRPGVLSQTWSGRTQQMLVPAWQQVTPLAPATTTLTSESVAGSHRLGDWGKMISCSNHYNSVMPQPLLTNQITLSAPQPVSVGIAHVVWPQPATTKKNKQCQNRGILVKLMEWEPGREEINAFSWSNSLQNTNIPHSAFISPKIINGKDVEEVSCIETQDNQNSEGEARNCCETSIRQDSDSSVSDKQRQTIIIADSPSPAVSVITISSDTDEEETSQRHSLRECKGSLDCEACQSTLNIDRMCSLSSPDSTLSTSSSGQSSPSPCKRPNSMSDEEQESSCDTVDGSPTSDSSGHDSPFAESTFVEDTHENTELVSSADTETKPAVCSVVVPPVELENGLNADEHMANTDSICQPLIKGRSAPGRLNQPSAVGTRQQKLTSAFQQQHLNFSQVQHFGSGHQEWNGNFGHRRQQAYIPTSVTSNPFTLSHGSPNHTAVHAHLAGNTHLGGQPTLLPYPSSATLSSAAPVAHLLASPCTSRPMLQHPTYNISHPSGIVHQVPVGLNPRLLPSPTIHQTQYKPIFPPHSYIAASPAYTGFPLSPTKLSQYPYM
Chain of CSNK1A1L (human) (Q8N752 whole entry, looked up): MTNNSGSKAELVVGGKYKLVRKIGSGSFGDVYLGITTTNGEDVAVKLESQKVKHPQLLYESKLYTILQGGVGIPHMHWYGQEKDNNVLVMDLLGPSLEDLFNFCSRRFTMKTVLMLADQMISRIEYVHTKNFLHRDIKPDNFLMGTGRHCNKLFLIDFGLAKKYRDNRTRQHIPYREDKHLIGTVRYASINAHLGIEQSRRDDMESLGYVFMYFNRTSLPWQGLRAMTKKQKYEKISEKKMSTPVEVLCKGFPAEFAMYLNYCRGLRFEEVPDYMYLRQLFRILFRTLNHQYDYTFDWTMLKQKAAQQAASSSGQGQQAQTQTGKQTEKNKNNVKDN

## COc1cc(N2CCC(N3CCN(C)CC3)CC2)ccc1Nc1ncc(Cl)c(Nc2ccccc2S(=O)(=O)C(C)C)n1
[1]
  kinase still bound, per cent of control: 0.7%
[2]
  kinase still bound, per cent of control: 0.1%

## CCN1CCN(Cc2ccc(NC(=O)c3ccc(C)c(Oc4ccnc5[nH]ccc45)c3)cc2C(F)(F)F)CC1
[1]
  kinase still bound, per cent of control: 0.1%
[2]
  kinase still bound, per cent of control: 0%

## CCN1CCN(Cc2ccc(NC(=O)c3ccc(C)c(/C=C/c4cnc(Nc5cc(N6CCNCC6)nc(C)n5)cn4)c3)cc2C(F)(F)F)CC1
HIPK3 (human)
  kinase still bound, per cent of control: 48%
CSNK1A1L (human)
  kinase still bound, per cent of control: 99%
STK39 (human)
  kinase still bound, per cent of control: 100%
PI4KB (human)
  kinase still bound, per cent of control: 63%
VRK2 (human)
  kinase still bound, per cent of control: 62%
[3]
  kinase still bound, per cent of control: 80%
PRKCI (human)
  kinase still bound, per cent of control: 74%
DSTYK (human)
  kinase still bound, per cent of control: 69%
SGK3 (human)
  kinase still bound, per cent of control: 80%
GRK4 (human)
  kinase still bound, per cent of control: 80%
MAST1 (human)
  kinase still bound, per cent of control: 87%
IRAK4 (human)
  kinase still bound, per cent of control: 77%
PRPF4B (human)
  kinase still bound, per cent of control: 85%
PLK2 (human)
  kinase still bound, per cent of control: 69%
[4]
  kinase still bound, per cent of control: 94%
CDK4 CCND1 (human)
  kinase still bound, per cent of control: 100%
CPK1 (P.falciparum)
  kinase still bound, per cent of control: 0.2%
MARK2 (human)
  kinase still bound, per cent of control: 100%
PRKG2 (human)
  kinase still bound, per cent of control: 88%
[5]
  kinase still bound, per cent of control: 33%
[6]
  kinase still bound, per cent of control: 20%
ROCK1 (human)
  kinase still bound, per cent of control: 100%
CASK (human)
  kinase still bound, per cent of control: 72%
STK38 (human)
  kinase still bound, per cent of control: 79%
HIPK2 (human)
  kinase still bound, per cent of control: 49%
PKN3 (M.tuberculosis)
  kinase still bound, per cent of control: 100%
ERBB3 (human)
  kinase still bound, per cent of control: 100%
IRAK1 (human)
  kinase still bound, per cent of control: 50%
NEK11 (human)
  kinase still bound, per cent of control: 40%
[7]
  kinase still bound, per cent of control: 100%
HUNK (human)
  kinase still bound, per cent of control: 93%
CDK4 CCND3 (human)
  kinase still bound, per cent of control: 64%
ACVR2B (human)
  kinase still bound, per cent of control: 92%
PAK3 (human)
  kinase still bound, per cent of control: 14%
[8]
  kinase still bound, per cent of control: 73%
DYRK2 (human)
  kinase still bound, per cent of control: 74%
[9]
  kinase still bound, per cent of control: 97%
MAP3K1 (human)
  kinase still bound, per cent of control: 75%
TRPM6 (human)
  kinase still bound, per cent of control: 67%
CDKL5 (human)
  kinase still bound, per cent of control: 13%

## CCOc1cc(N2CCC(N3CCCCC3)CC2)ccc1Nc1nc(Nc2ccccc2S(=O)(=O)C(C)C)c2cn[nH]c2n1
HIPK3 (human)
  kinase still bound, per cent of control: 79%
CSNK1A1L (human)
  kinase still bound, per cent of control: 78%
STK39 (human)
  kinase still bound, per cent of control: 37%
PI4KB (human)
  kinase still bound, per cent of control: 58%
VRK2 (human)
  kinase still bound, per cent of control: 68%
[3]
  kinase still bound, per cent of control: 100%
PRKCI (human)
  kinase still bound, per cent of control: 100%
DSTYK (human)
  kinase still bound, per cent of control: 2.8%
SGK3 (human)
  kinase still bound, per cent of control: 92%
GRK4 (human)
  kinase still bound, per cent of control: 92%
MAST1 (human)
  kinase still bound, per cent of control: 46%
IRAK4 (human)
  kinase still bound, per cent of control: 87%
PRPF4B (human)
  kinase still bound, per cent of control: 100%
PLK2 (human)
  kinase still bound, per cent of control: 100%
[4]
  kinase still bound, per cent of control: 100%
CDK4 CCND1 (human)
  kinase still bound, per cent of control: 82%
CPK1 (P.falciparum)
  kinase still bound, per cent of control: 44%
MARK2 (human)
  kinase still bound, per cent of control: 86%
PRKG2 (human)
  kinase still bound, per cent of control: 100%
[5]
  kinase still bound, per cent of control: 100%
[6]
  kinase still bound, per cent of control: 73%
ROCK1 (human)
  kinase still bound, per cent of control: 4.8%
CASK (human)
  kinase still bound, per cent of control: 100%
STK38 (human)
  kinase still bound, per cent of control: 98%
HIPK2 (human)
  kinase still bound, per cent of control: 89%
PKN3 (M.tuberculosis)
  kinase still bound, per cent of control: 75%
ERBB3 (human)
  kinase still bound, per cent of control: 55%
IRAK1 (human)
  kinase still bound, per cent of control: 93%
NEK11 (human)
  kinase still bound, per cent of control: 100%
[7]
  kinase still bound, per cent of control: 100%
HUNK (human)
  kinase still bound, per cent of control: 100%
CDK4 CCND3 (human)
  kinase still bound, per cent of control: 100%
ACVR2B (human)
  kinase still bound, per cent of control: 100%
PAK3 (human)
  kinase still bound, per cent of control: 59%
[8]
  kinase still bound, per cent of control: 100%
DYRK2 (human)
  kinase still bound, per cent of control: 90%
[9]
  kinase still bound, per cent of control: 100%
MAP3K1 (human)
  kinase still bound, per cent of control: 82%
TRPM6 (human)
  kinase still bound, per cent of control: 100%
CDKL5 (human)
  kinase still bound, per cent of control: 100%

From the kinase profiling compilation of Christmann-Franck et al. (2016)
